Experiments:
[1] = system: mice; test: Novelty suppressed feeding (NSF); format: in vivo, mouse; conditions: 7 days post-drug administration; 10 mg/kg
Procedure: FIGS. 7A-D Effect of Ariadne in behavioral conflict paradigms. (a) Survival plot of effect of (R)-Ariadne (10 mg/kg) on latency to feed in the novelty suppressed feeding (NSF) test 7 days post a single drug administration. (b) Effect of 6 mg/kg and 10 mg/kg (R)-Ariadne on latency to feed in the novelty suppressed feeding (NSF) test 7 days post a single drug administration. (c) Effect of (R)-Ariadne and (±)-DOPR on the time spent in the open vs closed arms and (d) corresponding arm entries 30 minutes and 4 hours post a single subcutaneous injection.

[2] = target: T1, Opiate δ1 (OP1, DOP) (Homo sapiens, UniProt P41143); test: SafetyScreen44 260130; format: binding; conditions: 10 μM; [3H]Naltrindole; recombinant
T1 construct: purchased Eurofins-Panlabs (contract screen SafetyScreen44) assay ID 260130
Procedure: (§1) A broad screen of 44 molecular targets (SafetyScreen44, Eurofins-Panlabs) for Ariadne were performed, which includes G protein-coupled receptors, steroid nuclear receptors, ion channels, neurotransmitter transporters, and metabolic and signaling enzymes. Only two molecular targets, 5-HT2A and 5-HT2B receptors, emerged above the positive hit threshold, defined as 50% displacement of standard radioligands by 10 uM concentration of Ariadne (FIG. 1b, and Table 1).
(§2) For species, “H”=human, “R”=rat. Test compound screened at all targets at concentration of 10 μM.

[3] = target: T2, Nicotinic Acetylcholine alpha4beta2, Cytisine (Homo sapiens, UniProt P17787+P43681); test: SafetyScreen44 299031; format: binding; conditions: 10 μM; [3H]Cytisine; recombinant
T2 construct: purchased Eurofins-Panlabs (contract screen SafetyScreen44) assay ID 299031
Procedure: as §1, §2

[4] = target: T3, Adrenergic alpha1A (Homo sapiens, UniProt P35348); test: SafetyScreen44 203110; format: binding; conditions: 10 μM; [3H]Prazosin; recombinant
T3 construct: Eurofins-Panlabs (contract screen) 203110
Procedure: as §1, §2

[5] = system: rat smooth muscle; conditions: compared to serotonin and (R)-DOM; cited from earlier work
[6] = target: T4, Muscarinic M2 (Homo sapiens, UniProt P08172); test: SafetyScreen44 252710; format: binding; conditions: 10 μM; [3H]N-Methylscopolamine; recombinant
T4 construct: purchased Eurofins-Panlabs (contract screen SafetyScreen44) assay ID 252710
Procedure: as §1, §2

[7] = target: T5, Cyclooxygenase COX-1 (Homo sapiens, UniProt P23219); test: SafetyScreen44 116030; format: biochemical; conditions: 10 μM; Arachidonic acid; recombinant
T5 construct: Eurofins-Panlabs (contract screen) 116030
Procedure: as §1, §2

[8] = target: T6, Histamine H2 (Homo sapiens, UniProt P25021); test: SafetyScreen44 239710; format: binding; conditions: 10 μM; [125I]Aminopotentidine; recombinant
T6 construct: purchased Eurofins-Panlabs (contract screen SafetyScreen44) assay ID 239710
Procedure: as §1, §2

[9] = target: T7, Muscarinic M1 (Homo sapiens, UniProt P11229); test: SafetyScreen44 252610; format: binding; conditions: 10 μM; [3H]N-Methylscopolamine; recombinant
T7 construct: purchased Eurofins-Panlabs (contract screen SafetyScreen44) assay ID 252610
Procedure: as §1, §2

[10] = target: T8, Serotonin (5-Hydroxytryptamine) 5-HT2B (Homo sapiens, UniProt P41595); test: SafetyScreen44 271700; format: binding; conditions: 10 μM, [3H]Lysergic acid diethylamide (LSD), recombinant
T8 construct: purchased Eurofins-Panlabs (contract screen SafetyScreen44) assay ID 271700
Procedure: as §1, §2

[11] = target: T9, Dopamine D2S (Homo sapiens, UniProt P14416); test: SafetyScreen44 219700; format: binding; conditions: 10 μM; [3H]Spiperone; recombinant
T9 construct: Eurofins-Panlabs (contract screen) 219700
Procedure: as §1, §2

[12] = system: humans; conditions: in vivo; cited from earlier work
[13] = target: T10, Endothelin ETA (Homo sapiens, UniProt P25101); test: SafetyScreen44 224010; format: binding; conditions: 10 μM; [125I]Endothelin-1; recombinant
T10 construct: Eurofins-Panlabs (contract screen) 224010
Procedure: as §1, §2

[14] = target: T11, Cyclooxygenase COX-2 (Homo sapiens, UniProt P35354); test: SafetyScreen44 118030; format: biochemical; conditions: 10 μM; Arachidonic acid; recombinant
T11 construct: Eurofins-Panlabs (contract screen) 118030
Procedure: as §1, §2

[15] = system: Potassium Channel [KA]; test: SafetyScreen44 265510; format: binding, rat; conditions: 10 μM; [125I]alpha-Dendrotoxin; cerebral cortex
Procedure: as §1, §2

[16] = system: Glutamate, NMDA, Agonism; test: SafetyScreen44 232810; format: binding, rat; conditions: 10 μM; [3H]CGP-39653; cerebral cortex
Procedure: as §1, §2

[17] = target: T12, Cannabinoid CB1 (Homo sapiens, UniProt P21554); test: SafetyScreen44 217050; format: binding; conditions: 10 μM; [3H]SR141716A; recombinant
T12 construct: Eurofins-Panlabs (contract screen) 217050
Procedure: as §1, §2

[18] = target: T13, Monoamine Oxidase MAO-A (Homo sapiens, UniProt P21397); test: SafetyScreen44 140010; format: biochemical; conditions: 10 μM; Kynuramine; recombinant
T13 construct: Eurofins-Panlabs (contract screen) 140010
Procedure: as §1, §2

[19] = target: hSERT (Homo sapiens, UniProt P31645); test: SERT-mediated cell uptake assay (fluorescence uptake inhibition); format: cell-based
[20] = target: T14, Histamine H1 (Homo sapiens, UniProt P35367); test: SafetyScreen44 239610; format: binding; conditions: 10 μM; [3H]Pyrilamine; recombinant
T14 construct: purchased Eurofins-Panlabs (contract screen SafetyScreen44) assay ID 239610
Procedure: as §1, §2

[21] = target: T15, Serotonin (5-Hydroxytryptamine) 5-HT2A (Homo sapiens, UniProt P28223); test: SafetyScreen44 271650; format: binding; conditions: 10 μM, [3H]Ketanserin, recombinant
T15 construct: purchased Eurofins-Panlabs (contract screen SafetyScreen44) assay ID 271650
Procedure: as §1, §2

[22] = target: T16, Serotonin (5-Hydroxytryptamine) 5-HT1A (Homo sapiens, UniProt P08908); test: SafetyScreen44 271110; format: binding; conditions: 10 μM; [3H]8-OH-DPAT; recombinant
T16 construct: purchased Eurofins-Panlabs (contract screen SafetyScreen44) assay ID 271110
Procedure: as §1, §2

[23] = target: T17, Serotonin (5-Hydroxytryptamine) 5-HT1B (Homo sapiens, UniProt P28222); test: SafetyScreen44 271230; format: binding; conditions: 10 μM; [3H]GR125743; recombinant
T17 construct: purchased Eurofins-Panlabs (contract screen SafetyScreen44) assay ID 271230
Procedure: as §1, §2

[24] = target: T18, Protein Tyrosine Kinase, LCK (Homo sapiens, UniProt P06239); test: SafetyScreen44 176020; format: biochemical; conditions: 10 μM; Poly(Glu:Tyr); recombinant
T18 construct: Eurofins-Panlabs (contract screen) 176020
Procedure: as §1, §2

T15 sequence (P28223 whole entry): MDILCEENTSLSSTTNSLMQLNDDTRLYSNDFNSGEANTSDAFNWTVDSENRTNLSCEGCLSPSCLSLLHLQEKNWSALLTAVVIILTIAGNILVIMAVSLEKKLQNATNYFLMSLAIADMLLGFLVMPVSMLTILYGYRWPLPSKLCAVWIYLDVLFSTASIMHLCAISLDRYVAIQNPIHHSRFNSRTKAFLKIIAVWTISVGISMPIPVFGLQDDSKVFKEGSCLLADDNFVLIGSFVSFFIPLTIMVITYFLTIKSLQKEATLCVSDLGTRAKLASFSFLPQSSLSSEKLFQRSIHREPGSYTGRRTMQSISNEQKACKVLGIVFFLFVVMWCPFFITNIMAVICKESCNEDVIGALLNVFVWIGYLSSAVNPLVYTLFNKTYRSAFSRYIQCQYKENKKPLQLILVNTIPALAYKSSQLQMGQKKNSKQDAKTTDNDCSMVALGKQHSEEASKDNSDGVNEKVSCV
T8 sequence (P41595 whole entry): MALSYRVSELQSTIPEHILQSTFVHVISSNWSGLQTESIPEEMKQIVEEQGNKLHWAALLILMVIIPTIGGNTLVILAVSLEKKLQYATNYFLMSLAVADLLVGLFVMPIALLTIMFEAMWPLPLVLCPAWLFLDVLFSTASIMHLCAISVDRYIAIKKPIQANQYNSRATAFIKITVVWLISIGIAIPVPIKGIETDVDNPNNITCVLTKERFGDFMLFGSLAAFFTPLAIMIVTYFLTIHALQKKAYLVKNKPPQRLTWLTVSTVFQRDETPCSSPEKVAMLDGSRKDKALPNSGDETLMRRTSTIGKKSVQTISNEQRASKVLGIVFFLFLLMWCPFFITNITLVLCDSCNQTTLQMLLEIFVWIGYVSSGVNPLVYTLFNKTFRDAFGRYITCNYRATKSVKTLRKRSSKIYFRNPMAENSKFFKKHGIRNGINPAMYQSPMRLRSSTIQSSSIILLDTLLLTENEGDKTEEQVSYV
T6 sequence (P25021 whole entry): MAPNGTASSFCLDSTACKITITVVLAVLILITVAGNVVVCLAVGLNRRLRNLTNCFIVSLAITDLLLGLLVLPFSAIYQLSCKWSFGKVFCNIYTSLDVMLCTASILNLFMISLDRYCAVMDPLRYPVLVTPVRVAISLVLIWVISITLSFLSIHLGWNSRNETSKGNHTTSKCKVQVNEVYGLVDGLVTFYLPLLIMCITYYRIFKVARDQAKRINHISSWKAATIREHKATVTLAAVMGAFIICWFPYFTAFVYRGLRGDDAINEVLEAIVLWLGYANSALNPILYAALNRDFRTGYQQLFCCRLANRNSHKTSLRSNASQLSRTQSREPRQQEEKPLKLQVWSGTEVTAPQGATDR
T17 sequence (P28222 whole entry): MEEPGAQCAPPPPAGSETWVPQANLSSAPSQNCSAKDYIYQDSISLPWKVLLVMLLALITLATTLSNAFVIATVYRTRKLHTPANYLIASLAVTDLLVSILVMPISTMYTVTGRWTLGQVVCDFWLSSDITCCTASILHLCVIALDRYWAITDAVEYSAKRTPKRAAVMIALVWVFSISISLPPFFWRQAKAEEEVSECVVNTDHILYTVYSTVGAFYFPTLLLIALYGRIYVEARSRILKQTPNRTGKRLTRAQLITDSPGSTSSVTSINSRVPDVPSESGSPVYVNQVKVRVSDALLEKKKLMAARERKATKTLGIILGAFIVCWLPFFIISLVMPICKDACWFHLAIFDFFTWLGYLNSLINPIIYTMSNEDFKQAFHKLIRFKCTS
T5 sequence (P23219 24-599): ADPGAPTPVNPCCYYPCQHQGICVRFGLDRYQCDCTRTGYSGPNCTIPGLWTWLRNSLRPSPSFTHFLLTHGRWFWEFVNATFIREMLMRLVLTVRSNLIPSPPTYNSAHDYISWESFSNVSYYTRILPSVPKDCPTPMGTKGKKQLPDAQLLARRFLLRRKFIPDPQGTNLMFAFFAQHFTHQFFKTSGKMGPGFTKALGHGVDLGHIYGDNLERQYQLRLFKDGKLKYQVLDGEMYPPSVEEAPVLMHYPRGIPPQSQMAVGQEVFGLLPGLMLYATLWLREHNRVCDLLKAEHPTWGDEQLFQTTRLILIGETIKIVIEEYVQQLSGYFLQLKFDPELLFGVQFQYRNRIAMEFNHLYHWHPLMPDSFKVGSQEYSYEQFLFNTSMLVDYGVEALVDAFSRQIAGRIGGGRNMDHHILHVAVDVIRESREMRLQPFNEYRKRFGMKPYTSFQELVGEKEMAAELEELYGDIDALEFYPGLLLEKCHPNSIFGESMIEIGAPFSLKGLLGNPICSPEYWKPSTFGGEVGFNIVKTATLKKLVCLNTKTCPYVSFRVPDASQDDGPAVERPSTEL
T10 sequence (P25101 21-427): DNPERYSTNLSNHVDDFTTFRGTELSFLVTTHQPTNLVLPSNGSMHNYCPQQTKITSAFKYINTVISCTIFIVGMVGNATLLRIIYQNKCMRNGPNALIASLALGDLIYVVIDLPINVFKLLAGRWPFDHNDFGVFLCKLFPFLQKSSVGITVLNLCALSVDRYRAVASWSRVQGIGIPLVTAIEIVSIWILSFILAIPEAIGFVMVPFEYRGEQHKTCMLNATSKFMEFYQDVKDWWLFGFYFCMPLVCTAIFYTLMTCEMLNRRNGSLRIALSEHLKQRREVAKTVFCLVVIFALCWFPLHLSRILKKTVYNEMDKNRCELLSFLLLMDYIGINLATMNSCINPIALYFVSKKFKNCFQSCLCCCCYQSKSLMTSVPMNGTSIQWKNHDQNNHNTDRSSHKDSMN
T18 sequence (P06239 whole entry): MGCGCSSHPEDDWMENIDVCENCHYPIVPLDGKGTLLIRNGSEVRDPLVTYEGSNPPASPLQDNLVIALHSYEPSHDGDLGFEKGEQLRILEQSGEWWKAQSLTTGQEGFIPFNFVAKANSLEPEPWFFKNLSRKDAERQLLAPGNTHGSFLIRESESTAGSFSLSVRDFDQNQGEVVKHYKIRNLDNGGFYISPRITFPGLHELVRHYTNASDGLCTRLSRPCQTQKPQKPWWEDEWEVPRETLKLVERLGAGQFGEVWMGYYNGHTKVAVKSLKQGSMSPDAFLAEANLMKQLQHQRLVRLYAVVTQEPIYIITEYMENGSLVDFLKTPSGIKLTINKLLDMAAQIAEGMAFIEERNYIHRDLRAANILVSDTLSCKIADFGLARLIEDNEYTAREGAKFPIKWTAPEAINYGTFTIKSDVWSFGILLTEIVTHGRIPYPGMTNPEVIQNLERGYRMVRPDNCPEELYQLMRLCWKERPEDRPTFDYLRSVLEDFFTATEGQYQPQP
Chain of hSERT (P31645 whole entry): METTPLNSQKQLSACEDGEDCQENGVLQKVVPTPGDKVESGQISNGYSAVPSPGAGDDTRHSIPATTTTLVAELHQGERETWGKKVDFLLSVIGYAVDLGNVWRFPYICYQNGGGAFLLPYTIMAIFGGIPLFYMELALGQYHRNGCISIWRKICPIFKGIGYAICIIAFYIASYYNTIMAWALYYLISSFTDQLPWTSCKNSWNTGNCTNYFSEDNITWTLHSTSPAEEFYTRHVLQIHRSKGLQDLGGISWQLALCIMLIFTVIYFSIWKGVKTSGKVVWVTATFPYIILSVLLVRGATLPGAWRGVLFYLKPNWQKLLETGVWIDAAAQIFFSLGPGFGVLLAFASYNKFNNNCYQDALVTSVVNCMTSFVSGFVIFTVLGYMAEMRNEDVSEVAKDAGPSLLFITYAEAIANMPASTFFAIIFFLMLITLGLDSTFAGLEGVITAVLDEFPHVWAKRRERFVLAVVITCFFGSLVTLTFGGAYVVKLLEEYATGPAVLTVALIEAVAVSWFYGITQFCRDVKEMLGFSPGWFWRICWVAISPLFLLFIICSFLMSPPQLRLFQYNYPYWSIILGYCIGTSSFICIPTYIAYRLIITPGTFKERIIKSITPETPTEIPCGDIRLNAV
T16 sequence (P08908 whole entry): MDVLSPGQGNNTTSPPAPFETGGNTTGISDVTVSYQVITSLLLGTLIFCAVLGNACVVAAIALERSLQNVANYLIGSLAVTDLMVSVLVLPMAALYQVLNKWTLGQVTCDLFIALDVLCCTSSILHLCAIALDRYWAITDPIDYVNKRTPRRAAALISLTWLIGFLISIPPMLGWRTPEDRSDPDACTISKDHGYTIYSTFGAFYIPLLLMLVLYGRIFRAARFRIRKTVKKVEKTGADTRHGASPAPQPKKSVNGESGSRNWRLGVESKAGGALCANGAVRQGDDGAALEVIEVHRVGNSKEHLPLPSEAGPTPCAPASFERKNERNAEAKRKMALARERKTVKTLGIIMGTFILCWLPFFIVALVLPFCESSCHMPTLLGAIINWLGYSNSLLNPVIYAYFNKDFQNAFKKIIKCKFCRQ
T9 sequence (P14416 1-414 isoform P14416-2): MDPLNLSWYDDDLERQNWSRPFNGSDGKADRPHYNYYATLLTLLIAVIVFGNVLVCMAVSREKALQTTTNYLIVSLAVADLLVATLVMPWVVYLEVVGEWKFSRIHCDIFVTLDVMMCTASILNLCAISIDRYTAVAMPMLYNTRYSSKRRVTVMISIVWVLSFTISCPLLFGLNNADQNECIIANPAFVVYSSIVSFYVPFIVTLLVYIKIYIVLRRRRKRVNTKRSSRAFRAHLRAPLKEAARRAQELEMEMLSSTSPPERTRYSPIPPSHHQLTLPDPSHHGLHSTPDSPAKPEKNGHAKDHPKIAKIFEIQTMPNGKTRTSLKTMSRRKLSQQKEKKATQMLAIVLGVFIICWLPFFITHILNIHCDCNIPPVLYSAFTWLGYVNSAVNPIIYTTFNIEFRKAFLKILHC

CC[C@@H](N)Cc1cc(OC)c(C)cc1OC [(R)-Ariadne]
latency to bite the presented food pellets [1]: dose-dependent trend toward reducing latency

CCC(N)Cc1cc(OC)c(C)cc1OC (racemic) [Compound 32, 1-(2,5-dimethoxy-4-methylphenyl)butan-2-amine]
% Response [2]: 4% | % Response [3]: −31% | % Response [4]: 24% | serotonergic-like effect [5]: weak serotonergic-like effect | % Response [6]: 0% | % Response [7]: −31% | % Response [8]: 21% | % Response [9]: −4% | % Response ([10]; listed as (rac)-Ariadne): more than 50% | % Response ([10]; listed as Ariadne): 72% | % Response [11]: 1% | hallucinogenic effects in humans [12]: lack the hallucinogenic effects | % Response [13]: −6% | % Response [14]: −2% | % Response [15]: −6% | % Response [16]: −5% | % Response [17]: 1% | % Response [18]: −3% | IC50 [19]: > 50 µM | % Response [20]: 13% | % Response ([21]; listed as (rac)-Ariadne): more than 50% | % Response ([21]; listed as Ariadne): 72% | % Response [22]: 36% | % Response [23]: 12% | % Response [24]: 13%

Source: patent publication US20260021061A1, “ARIADNE AND ANALOGS FOR THE TREATMENT OF NEUROLOGICAL AND NEUROMUSCLAR DISORDERS” (priority 2022, published 2026)
